Data as given in ChEMBL document CHEMBL3813624, “Discovery of hydroxyl 1,2-diphenylethanamine analogs as potent cholesterol ester transfer protein inhibitors” (Bioorg Med Chem Lett, 2016).

What was measured:
[1] = target: T1, Cholesteryl ester transfer protein (Homo sapiens, UniProt P11597); assay: Inhibition of CETP in human whole plasma assessed as reduction in [3H]cholesteryl ester transfer from [3H]CE-HDL to LDL/VLDL; format: cell-free
T1 sequence (P11597 whole entry): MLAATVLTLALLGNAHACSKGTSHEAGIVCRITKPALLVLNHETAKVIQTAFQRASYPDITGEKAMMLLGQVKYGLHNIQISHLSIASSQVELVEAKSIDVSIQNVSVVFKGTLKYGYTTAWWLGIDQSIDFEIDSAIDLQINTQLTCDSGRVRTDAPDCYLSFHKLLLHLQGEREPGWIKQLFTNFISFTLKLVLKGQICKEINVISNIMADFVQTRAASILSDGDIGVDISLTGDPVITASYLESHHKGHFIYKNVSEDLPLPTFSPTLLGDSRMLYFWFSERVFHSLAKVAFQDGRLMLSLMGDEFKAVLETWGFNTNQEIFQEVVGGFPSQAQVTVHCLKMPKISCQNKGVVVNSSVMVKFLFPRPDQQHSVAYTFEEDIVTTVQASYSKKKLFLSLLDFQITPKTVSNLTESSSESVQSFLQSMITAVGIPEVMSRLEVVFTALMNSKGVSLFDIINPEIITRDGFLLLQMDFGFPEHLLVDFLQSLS

[2] = target: T2, Voltage-gated inwardly rectifying potassium channel KCNH2 (Homo sapiens, UniProt Q12809); assay: Inhibition of recombinant human ERG flux expressed in HEK293 cells by patch clamp assay; format: cell-based
T2 sequence (Q12809 whole entry): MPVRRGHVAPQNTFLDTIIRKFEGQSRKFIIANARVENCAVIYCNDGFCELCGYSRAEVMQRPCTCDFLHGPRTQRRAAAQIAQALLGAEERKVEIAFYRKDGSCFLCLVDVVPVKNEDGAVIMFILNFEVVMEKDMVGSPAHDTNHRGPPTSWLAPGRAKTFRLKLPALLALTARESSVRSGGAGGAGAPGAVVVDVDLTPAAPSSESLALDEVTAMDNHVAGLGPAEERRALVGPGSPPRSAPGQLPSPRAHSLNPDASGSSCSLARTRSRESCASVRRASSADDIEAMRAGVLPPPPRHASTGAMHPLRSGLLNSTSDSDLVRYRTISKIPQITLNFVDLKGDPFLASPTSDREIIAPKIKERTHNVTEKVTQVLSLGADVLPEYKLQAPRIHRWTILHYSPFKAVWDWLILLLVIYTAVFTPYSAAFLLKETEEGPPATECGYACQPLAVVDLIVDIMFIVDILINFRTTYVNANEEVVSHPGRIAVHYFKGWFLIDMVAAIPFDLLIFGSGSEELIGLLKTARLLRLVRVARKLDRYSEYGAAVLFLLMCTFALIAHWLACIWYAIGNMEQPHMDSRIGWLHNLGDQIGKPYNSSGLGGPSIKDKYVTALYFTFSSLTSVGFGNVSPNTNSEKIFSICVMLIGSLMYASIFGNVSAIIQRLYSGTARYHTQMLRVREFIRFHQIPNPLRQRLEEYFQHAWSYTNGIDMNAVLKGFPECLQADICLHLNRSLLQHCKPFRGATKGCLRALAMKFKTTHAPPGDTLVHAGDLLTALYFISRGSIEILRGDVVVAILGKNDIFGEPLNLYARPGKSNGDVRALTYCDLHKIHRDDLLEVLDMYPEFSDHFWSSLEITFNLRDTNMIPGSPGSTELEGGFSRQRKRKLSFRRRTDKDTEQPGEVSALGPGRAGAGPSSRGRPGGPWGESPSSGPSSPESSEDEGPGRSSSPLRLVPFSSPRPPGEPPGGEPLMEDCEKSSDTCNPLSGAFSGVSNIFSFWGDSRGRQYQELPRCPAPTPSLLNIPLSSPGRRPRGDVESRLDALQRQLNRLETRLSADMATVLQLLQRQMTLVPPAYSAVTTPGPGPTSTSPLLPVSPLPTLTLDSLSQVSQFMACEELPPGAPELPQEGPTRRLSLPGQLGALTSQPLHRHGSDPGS

[3] = target: T1, Cholesteryl ester transfer protein; assay: Inhibition of human recombinant CETP assessed as reduction in [3H]cholesteryl ester transfer from [3H]CE-HDL to biotinylated LDL by scintillation proximity assay
[4] = Aqueous solubility of compound; format: physicochemical; conditions: buffer
[5] = AUC (0 to 8 hrs) in dual transgenic mouse plasma expressing human CETP/ApoB-100 at 10 mg/kg, po; format: ADME, organism-based; parameters: time < 8 hr, dose 10 mg/kg, route oral
[6] = Metabolic stability in human liver microsomes assessed as compound remaining at 3 uM after 10 mins by UV absorbance method; format: ADME; conditions: read-out: Stability
[7] = Plasma concentration in dual transgenic mouse expressing human CETP/ApoB-100 at 10 mg/kg, po measured at 8 hrs post dose; format: ADME, organism-based
[8] = Ratio of plasma concentration in dual transgenic mouse expressing human CETP/ApoB-100 at 10 mg/kg, po measured at 4 hrs post dose to IC50 for CETP in human whole plasma; format: ADME, organism-based; conditions: in vivo
[9] = Plasma concentration in dual transgenic mouse expressing human CETP/ApoB-100 at 1 mg/kg, po measured at 2 hrs post dose; format: ADME, organism-based
[10] = AUC (0 to 8 hrs) in dual transgenic mouse plasma expressing human CETP/ApoB-100 at 3 mg/kg, po; format: ADME, organism-based; parameters: dose 3 mg/kg, time < 8 hr, route oral
[11] = AUC (0 to 8 hrs) in dual transgenic mouse plasma expressing human CETP/ApoB-100 at 1 mg/kg, po; format: ADME, organism-based; parameters: time < 8 hr, dose 1 mg/kg, route oral
[12] = Plasma concentration in dual transgenic mouse expressing human CETP/ApoB-100 at 1 mg/kg, po measured at 4 hrs post dose; format: ADME, organism-based
[13] = Plasma concentration in dual transgenic mouse expressing human CETP/ApoB-100 at 10 mg/kg, po measured at 4 hrs post dose; format: ADME, organism-based
[14] = Plasma concentration in dual transgenic mouse expressing human CETP/ApoB-100 at 1 mg/kg, po measured at 8 hrs post dose; format: ADME, organism-based
[15] = Plasma concentration in dual transgenic mouse expressing human CETP/ApoB-100 at 10 mg/kg, po measured at 2 hrs post dose; format: ADME, organism-based
Mus musculus = assay: In vivo inhibition of human CETP-mediated [3H]cholesteryl ester transfer in human CETP expressed transgenic mouse coexpressing ApoB-100 at 3 to 10 mg/kg, po measured at 8 hrs post dose relative to control; format: functional
[16] = target: T2, Voltage-gated inwardly rectifying potassium channel KCNH2; assay: Inhibition of recombinant human ERG expressed in HEK293 cells assessed as inhibition of peak tail current by patch clamp assay; format: cell-based
[17] = Ratio of plasma concentration in dual transgenic mouse expressing human CETP/ApoB-100 at 10 mg/kg, po measured at 2 hrs post dose to IC50 for CETP in human whole plasma; format: ADME, organism-based; conditions: in vivo
[18] = Plasma concentration in dual transgenic mouse expressing human CETP/ApoB-100 at 3 mg/kg, po measured at 8 hrs post dose; format: ADME, organism-based
[19] = Plasma concentration in dual transgenic mouse expressing human CETP/ApoB-100 at 3 mg/kg, po measured at 2 hrs post dose; format: ADME, organism-based
[20] = Plasma concentration in dual transgenic mouse expressing human CETP/ApoB-100 at 3 mg/kg, po measured at 4 hrs post dose; format: ADME, organism-based
[21] = Metabolic stability in mouse liver microsomes assessed as compound remaining at 3 uM after 10 mins by UV absorbance method; format: ADME; conditions: read-out: Stability
[22] = Metabolic stability in rat liver microsomes assessed as compound remaining at 3 uM after 10 mins by UV absorbance method; format: ADME; conditions: read-out: Stability

Compound	IC50 [1] [nM]	IC50 [2] [nM]	IC50 [3] [nM]	solubility [4] [µg/mL]	remaining at 10 min, 3 µM [6] [%]	remaining at 10 min, 3 µM [21] [%]	remaining at 10 min, 3 µM [22] [%]	other results
CC(C)Oc1cc([C@@](Cc2ccccc2)(NC[C@H](O)C(F)(F)F)c2cc(F)cc(OC(F)(F)C(F)F)c2)ccc1F	238	12000	2.9					
C[C@H](O)CN[C@@](Cc1ccccc1)(c1cc(F)cc(C(F)(F)F)c1)c1ccc(Cl)cn1	20000		334	< 1				
CC(C)Oc1cc([C@@](Cc2ccccc2)(NC[C@H](O)CC(F)(F)F)c2cc(F)cc(OC(F)(F)C(F)F)c2)ccc1F	49	28000	1.3		83	85	83	AUC(0-t) at 8 h [5]: 2.66 µM·h; concentration at 8 h [7]: 92 nM; Ratio [8]: 5; concentration at 2 h [9]: 180 nM; AUC(0-t) at 8 h [10]: 1.04 µM·h; AUC(0-t) at 8 h [11]: 0.543 µM·h; concentration at 4 h [12]: 54 nM; concentration at 4 h [13]: 250 nM; concentration at 8 h [14]: 28 nM; concentration at 2 h [15]: 960 nM; inhibition (INH) (Mus musculus): 50%; IC50 [16]: 25600 nM; Ratio [17]: 19; concentration at 8 h [18]: 45 nM; concentration at 2 h [19]: 380 nM; concentration at 4 h [20]: 89 nM
O=C(N[C@@](Cc1ccccc1)(c1cc(F)cc(C(F)(F)F)c1)c1ccc(Cl)cn1)c1ccc(F)c(C(F)(F)F)c1	7000		52	< 1	93	100	97	
CC(C)Oc1cc([C@@](Cc2ccccc2)(NC[C@@H](O)C(F)(F)F)c2cc(F)cc(OC(F)(F)C(F)F)c2)ccc1F	55	21000	1.8		83	85	83	
C[C@@H](O)CN[C@@](Cc1ccccc1)(c1cc(F)cc(C(F)(F)F)c1)c1ccc(Cl)cn1	32000		520	< 1				
OC(CN[C@@](Cc1ccccc1)(c1cc(F)cc(C(F)(F)F)c1)c1ccc(Cl)cn1)CC(F)(F)F (some centres not stated)	1200		9	< 1	93	73	69	
CC(=O)O[C@H](CN[C@@](Cc1ccccc1)(c1cc(F)cc(C(F)(F)F)c1)c1ccc(Cl)cn1)C(F)(F)F	100000		826	< 1				
